Data as given in the supplement of paper PMC10883282.

Columns and labels:
Experiment in all cases: relative viability vs DMSO control (72 h) (fraction); higher = more viable cells
HT1080 = tested on: HT1080
Outline: (§1)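 ATPLite readings, expressed as percent growth and averaged over up to triplicate wells, provided relative viability. Before reading, sarcoma cell lines seeded in 384-well plates to reach 80–90% confluence received 2.5 µl of serially diluted compound after 24 h, from source plates of 10 mM to 0.0002 mM. Plates were held 72 h at 37 °C, 5% CO2, with 0.1% DMSO as vehicle and a 5 µM positive control. The data were rescaled to 1 for full and 0 for none.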

KHOS-NP = tested on: KHOS-NP
Outline: as §1

RD = tested on: RD
Outline: as §1

VA-ES-BJ = tested on: VA-ES-BJ
Outline: as §1

RD-ES = tested on: RD-ES
Outline: as §1

CC#CC(=O)N1CCC[C@H]1c1nc(-c2ccc(C(=O)Nc3ccccn3)cc2)c2c(N)nccn12 [Acalabrutinib]
relative viability
Conditions | HT1080 | KHOS-NP | RD | RD-ES | VA-ES-BJ
0.00017 µM | 1.03 | 1.03 | 1.13 | 0.9637 | 1.01
0.00051 µM | 1.05 | 1.03 | 1.13 | 0.979 | 1.01
0.00152 µM | 1.05 | 1.04 | 1.12 | 0.998 | 1.03
0.00457 µM | 1.036 | 1.04 | 1.15 | 0.982 | 1.04
0.01372 µM | 1.01 | 1.02 | 1.13 | 1 | 1.01
0.04115 µM | 1.029 | 1.03 | 1.09 | 0.99 | 1.01
0.1235 µM | 1.04 | 1.03 | 1.06 | 0.992 | 1
0.3704 µM | 1.07 | 1.05 | 1.06 | 1.021 | 1.05
1.111 µM | 1.03 | 1.04 | 1.09 | 1.02 | 1.08
3.333 µM | 1.08 | 1.08 | 1.13 | 0.974 | 1.07
10 µM | 1.04 | 1.08 | 1.07 | 0.9313 | 1.05

N#CC1(c2ccc(NC(=O)c3cccnc3NCc3ccncc3)cc2)CCCC1 [Apatinib]
relative viability
Conditions | HT1080 | KHOS-NP | RD | RD-ES | VA-ES-BJ
0.00017 µM | 1.02 | 1.03 | 0.992 | 0.936 | 1.04
0.00051 µM | 1.05 | 1.04 | 1.02 | 0.968 | 1.08
0.00152 µM | 1.05 | 1.05 | 1.03 | 0.979 | 1.05
0.00457 µM | 1.081 | 1.05 | 1.01 | 0.946 | 1.08
0.01372 µM | 1.07 | 1.06 | 1.02 | 0.942 | 1.06
0.04115 µM | 1.05 | 1.08 | 1.01 | 0.961 | 1.07
0.1235 µM | 1.069 | 1.04 | 1.02 | 0.955 | 1.067
0.3704 µM | 1.04 | 1.027 | 1.01 | 0.902 | 1.07
1.111 µM | 1.03 | 1 | 1.05 | 0.91 | 1.11
3.333 µM | 1.04 | 0.918 | 1.09 | 0.892 | 1.14
10 µM | 0.9829 | 0.726 | 1.12 | 0.798 | 1.17

O=C(Nc1ccc(OC(F)(F)Cl)cc1)c1cnc(N2CC[C@@H](O)C2)c(-c2cc[nH]n2)c1 [Asciminib]
relative viability
Conditions | HT1080 | KHOS-NP | RD | RD-ES | VA-ES-BJ
0.00017 µM | 0.999 | 1.04 | 1.05 | 0.944 | 0.998
0.00051 µM | 1.06 | 1.06 | 1.049 | 0.942 | 0.982
0.00152 µM | 1 | 1.06 | 1.067 | 0.927 | 0.995
0.00457 µM | 0.999 | 1.04 | 1.08 | 0.926 | 0.99
0.01372 µM | 0.968 | 1.061 | 1.05 | 0.908 | 0.999
0.04115 µM | 1 | 1.04 | 1.092 | 0.895 | 1.02
0.1235 µM | 1.03 | 1.06 | 1.088 | 0.915 | 1.02
0.3704 µM | 1 | 1.025 | 1.11 | 0.889 | 1.03
1.111 µM | 0.998 | 0.998 | 1.04 | 0.852 | 1.02
3.333 µM | 0.978 | 0.901 | 1.07 | 0.849 | 0.9997
10 µM | 0.916 | 0.695 | 0.984 | 0.748 | 0.9486

CNC(=O)c1ccccc1Sc1ccc2c(/C=C/c3ccccn3)n[nH]c2c1 [Axitinib]
relative viability
Conditions | HT1080 | KHOS-NP | RD | RD-ES | VA-ES-BJ
0.00017 µM | 1.1 | 1.08 | 0.981 | 0.962 | 1.11
0.00051 µM | 1.06 | 1.12 | 0.977 | 0.92 | 1.097
0.00152 µM | 1.1 | 1.12 | 1 | 0.938 | 1.11
0.00457 µM | 1.1 | 1.12 | 1.01 | 0.947 | 1.12
0.01372 µM | 1.13 | 1.12 | 1.01 | 0.94 | 1.09
0.04115 µM | 1.11 | 1.106 | 0.98 | 0.963 | 1.08
0.1235 µM | 1.08 | 1.07 | 0.984 | 0.938 | 1.05
0.3704 µM | 1 | 1.01 | 0.892 | 0.871 | 0.9867
1.111 µM | 1.04 | 0.986 | 0.874 | 0.85 | 0.977
3.333 µM | 0.979 | 0.827 | 0.465 | 0.729 | 0.61
10 µM | 0.388 | 0.405 | 0.183 | 0.0832 | 0.263

Cc1cc2c(F)c(Oc3ncnn4cc(OC[C@@H](C)O)c(C)c34)ccc2[nH]1 [Brivanib]
relative viability
Conditions | HT1080 | KHOS-NP | RD | RD-ES | VA-ES-BJ
0.00017 µM | 1.04 | 1.04 | 1.07 | 0.961 | 1.01
0.00051 µM | 1.026 | 1.05 | 1.06 | 0.966 | 1.03
0.00152 µM | 1.05 | 1.05 | 1.08 | 0.985 | 1
0.00457 µM | 1.06 | 1.04 | 1.07 | 1 | 0.996
0.01372 µM | 1.07 | 1.06 | 1.11 | 0.996 | 0.96
0.04115 µM | 1.02 | 1.058 | 1.1 | 1 | 1
0.1235 µM | 1.02 | 1.06 | 1.1 | 1.01 | 1.011
0.3704 µM | 1.06 | 1.07 | 1.091 | 0.994 | 1.03
1.111 µM | 1.05 | 1.05 | 1.08 | 1 | 1.06
3.333 µM | 1.07 | 1.07 | 1.07 | 0.988 | 1.07
10 µM | 1.01 | 0.964 | 0.964 | 0.947 | 1.07

CO[C@H]1C[C@@H]2CC[C@@H](C)[C@@](O)(O2)C(=O)C(=O)N2CCCC[C@H]2C(=O)O[C@H]([C@H](C)C[C@@H]2CC[C@@H](OCCO)[C@H](OC)C2)CC(=O)[C@H](C)/C=C(\C)[C@@H](O)[C@@H](OC)C(=O)[C@H](C)C[C@H](C)/C=C/C=C/C=C/1C [Certican]
relative viability
Conditions | HT1080 | KHOS-NP | RD | RD-ES | VA-ES-BJ
0.00017 µM | 1.04 | 1.05 | 1.09 | 0.967 | 0.934
0.00051 µM | 1.04 | 1.07 | 1.09 | 0.939 | 0.855
0.00152 µM | 1.09 | 1.07 | 0.964 | 0.843 | 0.643
0.00457 µM | 1.09 | 1.05 | 0.888 | 0.807 | 0.604
0.01372 µM | 1.08 | 1.03 | 0.848 | 0.772 | 0.529
0.04115 µM | 0.985 | 1 | 0.8231 | 0.728 | 0.494
0.1235 µM | 0.998 | 1.02 | 0.773 | 0.676 | 0.482
0.3704 µM | 1.02 | 1.04 | 0.7358 | 0.658 | 0.478
1.111 µM | 1.01 | 1.03 | 0.73 | 0.598 | 0.468
3.333 µM | 1.01 | 1.02 | 0.71 | 0.552 | 0.47
10 µM | 0.922 | 0.824 | 0.657 | 0.488 | 0.46

CC1(COc2ccc3c(c2)ncn3-c2ccc3cccc(N4CCC(N)CC4)c3n2)COC1 [Crenolanib]
relative viability
Conditions | HT1080 | KHOS-NP | RD | RD-ES | VA-ES-BJ
0.00017 µM | 1.01 | 1.05 | 1.02 | 0.949 | 1.03
0.00051 µM | 1.03 | 1.03 | 1.05 | 0.958 | 1.02
0.00152 µM | 1.04 | 1.02 | 1.04 | 0.957 | 1.04
0.00457 µM | 1.03 | 1.05 | 1.05 | 0.975 | 1.04
0.01372 µM | 1.02 | 1.03 | 1.07 | 0.958 | 1.05
0.04115 µM | 1.02 | 1.01 | 1.05 | 0.969 | 1.08
0.1235 µM | 1.02 | 0.998 | 1.06 | 0.97 | 1.09
0.3704 µM | 1.05 | 0.946 | 1.1 | 0.994 | 1.11
1.111 µM | 1.04 | 0.765 | 1.11 | 0.915 | 0.961
3.333 µM | 0.811 | 0.605 | 0.955 | 0.359 | 0.466
10 µM | 0.0545 | 0.511 | 0.02007 | 0.255 | 0.108

CC(C)(C)c1nc(-c2cccc(NS(=O)(=O)c3c(F)cccc3F)c2F)c(-c2ccnc(N)n2)s1 [Dabrafenib]
relative viability
Conditions | HT1080 | KHOS-NP | RD | RD-ES | VA-ES-BJ
0.00017 µM | 1.05 | 1.09 | 1.07 | 0.94 | 1.02
0.00051 µM | 1.09 | 1.07 | 1.07 | 0.924 | 1.02
0.00152 µM | 1.01 | 1.05 | 1.07 | 0.948 | 1.06
0.00457 µM | 1.07 | 0.995 | 1.11 | 0.94 | 1.05
0.01372 µM | 1.05 | 1.01 | 1.12 | 0.911 | 1.07
0.04115 µM | 1.11 | 1.03 | 1.1 | 0.872 | 1.02
0.1235 µM | 1.13 | 1.01 | 1.1 | 0.838 | 1.01
0.3704 µM | 0.944 | 0.901 | 0.989 | 0.706 | 0.82
1.111 µM | 0.837 | 0.743 | 0.915 | 0.531 | 0.646
3.333 µM | 0.886 | 0.522 | 0.871 | 0.508 | 0.654
10 µM | 0.6761 | 0.303 | 0.846 | 0.557 | 0.5821

CCc1cnn2c(NCc3ccc[n+]([O-])c3)cc(N3CCCC[C@H]3CCO)nc12 [Dinaciclib]
relative viability
Conditions | HT1080 | KHOS-NP | RD | RD-ES | VA-ES-BJ
0.00017 µM | 1.04 | 1.03 | 0.828 | 0.937 | 0.994
0.00051 µM | 1.04 | 1.05 | 0.851 | 0.916 | 1.011
0.00152 µM | 1.04 | 1.06 | 0.821 | 0.912 | 1.03
0.00457 µM | 1.09 | 1.07 | 0.736 | 0.886 | 0.94
0.01372 µM | 0.792 | 0.836 | 0.504 | 0.612 | 0.269
0.04115 µM | 0.193 | 0.183 | 0.163 | 0.0429 | 0.222
0.1235 µM | 0.208 | 0.153 | 0.162 | 0.0102 | 0.227
0.3704 µM | 0.209 | 0.163 | 0.137 | 0.00417 | 0.255
1.111 µM | 0.202 | 0.164 | 0.119 | 0.0013 | 0.245
3.333 µM | 0.216 | 0.162 | 0.103 | -0.0014 | 0.253
10 µM | 0.219 | 0.137 | 0.0835 | -0.00263 | 0.247
